The assay has as its system MAGI-CCR5/HeLa-R5-16 cell fusion, beta-gal luminescence. As to the kind of experiment: inhibitors of R5 HIV-1 Env-mediated cell fusion, dose response, MAGI-CCR5/HeLa-R5-16 cells, beta-gal luminescence, 2% serum (AID 504341).

The source made the active and inactive calls.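 Rule for the calls: active = compounds blocking at least half of HIV-1 envelope-driven cell fusion at some tested dose; inactive = the rest.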 Where only a bound is given, the exact number is not on record here.

Consider `COc1ccc(-n2cccc2/C=C2/C(=N)N3C(=NC2=O)SN=C3S(C)(=O)=O)cc1Cl`, for which the half-inhibitory concentration (IC50) (commonly the concentration at which inhibition is half-maximal) is 46.4 µM.

`CC1=C(C(=O)OC(C)C)C(c2ccc(Cl)cc2)n2c(s/c(=C\c3ccc(OCC(=O)O)cc3)c2=O)=N1` (stereo not drawn): the IC50 is 56.8 µM.

Turning to `CS(=O)(=O)C1=NSC2=NC(=O)/C(=C\c3cccn3-c3cc(Cl)cc(Cl)c3)C(=N)N21`, the IC50 was 32.3 µM.

Consider `O=C(O)c1ccc(C[n+]2c(-c3ccc([N+](=O)[O-])cc3)csc2Nc2ccccc2)cc1`, for which the IC50 was > 100 µM (inactive).

On to `O=C(O)CCCN1C(=O)/C(=C/c2cc3ccccc3o2)SC1=S`, for which the IC50 was > 100 µM (inactive).

`Cc1c2c(=O)n(-c3nc4ccccc4s3)nc-2cc(O)n1CCc1cccs1`: the IC50 was > 100 µM (inactive).

Turning to `O=C(O)CCCN1C(=O)/C(=C/c2ccc(-c3ccc(Cl)c(Cl)c3)o2)SC1=S`, the IC50 was 8.68 µM.

Turning to `COc1ccccc1Cn1c(O)cc2nn(-c3nc4ccccc4s3)c(=O)c-2c1C`, the IC50 is 17 µM.

Consider `O=C(O)CCCN1C(=O)/C(=C\c2ccc(-c3ccc(F)cc3)o2)SC1=S`, for which the IC50 was > 100 µM (inactive).

In the case of `CCOC(=O)C1=C(c2ccccc2)N=c2s/c(=C\c3ccc(OCC(=O)O)cc3)c(=O)n2C1c1cccc(OC)c1` (stereo not drawn), the IC50 was 25.8 µM.

Take `CS(=O)(=O)C1=NSC2=NC(=O)/C(=C\c3cccn3-c3ccc(F)cc3)C(=N)N21`: the IC50 was 27.9 µM.

For the compound `CS(=O)(=O)C1=NSC2=NC(=O)/C(=C\c3cccn3-c3cccc(F)c3)C(=N)N21`, the IC50 is 49.9 µM.

For `COc1ccc(-c2ccc(/C=C3\SC(=S)N(CCCC(=O)O)C3=O)o2)cc1`, the IC50 was 36.6 µM.

With `COc1cccc(-n2cccc2/C=C2/C(=N)N3C(=NC2=O)SN=C3S(C)(=O)=O)c1`, the IC50 was > 100 µM (inactive).

Take `COc1cccc(C2C(C(=O)Nc3ccccc3)=C(C)N=c3sc(=Cc4ccc(OCC(=O)O)cc4)c(=O)n32)c1` (stereo not drawn): the IC50 was > 100 µM (inactive).

For the compound `CCOC(=O)C1=C(C)N=c2sc(=Cc3ccc(OCC(=O)O)cc3)c(=O)n2C1c1ccc(F)cc1` (stereo not drawn), the IC50 was 39.2 µM.

As to `O=C(O)c1ccc(C2Nc3ccc(S(=O)(=O)Nc4cc(Cl)ccc4Cl)cc3C3C=CCC32)cc1` (stereo not drawn), the IC50 was 28.4 µM.

For the compound `CS(=O)(=O)C1=NSC2=NC(=O)/C(=C\c3cccn3-c3ccc(Cl)cc3)C(=N)N21`, the IC50 is 34.8 µM.

As to `COc1ccc(Cn2c(O)cc3nn(-c4nc5ccccc5s4)c(=O)c-3c2C)cc1`, the IC50 is 15.3 µM.

For `CCOC(=O)C1=C(C)N=c2sc(=Cc3ccc(OCC(=O)O)cc3)c(=O)n2C1c1ccc(OC)cc1OC` (stereo not drawn), the IC50 is 29 µM.

With `COc1ccc(CCn2c(O)cc3nn(-c4nc5ccccc5s4)c(=O)c-3c2C)cc1`, the IC50 is > 100 µM (inactive).

Regarding `Cc1c2c(=O)n(-c3nc4ccccc4s3)nc-2cc(O)n1CCC(C)C`, the IC50 was 39 µM.

As to `Cc1c2c(=O)n(-c3nc4ccccc4s3)nc-2cc(O)n1Cc1ccc(F)cc1`, the IC50 is 20 µM.

Consider `Cc1c2c(=O)n(-c3nc4ccccc4s3)nc-2cc(O)n1Cc1ccccc1Cl`, for which the IC50 is 45.6 µM.

Turning to `COc1ccccc1NS(=O)(=O)c1ccc2c(c1)C1C=CCC1C(c1ccc(C(=O)O)cc1)N2` (stereo not drawn), the IC50 is 38.7 µM.

Turning to `CS(=O)(=O)C1=NSC2=NC(=O)/C(=C\c3cccn3-c3ccc(Cl)c(Cl)c3)C(=N)N21`, the IC50 was 35.2 µM.

Take `O=C(O)CCCN1C(=O)/C(=C/c2ccc(-c3cccc(C(F)(F)F)c3)o2)SC1=S`: the IC50 is 24.5 µM.

For the compound `O=C(O)c1ccc([C@@H]2Nc3ccc(S(=O)(=O)Nc4cccc5ccccc45)cc3[C@@H]3C=CC[C@@H]32)cc1`, the IC50 is 23.5 µM.

As for `O=C(O)CCCN1C(=O)/C(=C\c2ccc(-c3ccc(Cl)cc3)o2)SC1=S`, the IC50 is 8.29 µM.

Turning to `O=C(O)CCCN1C(=O)/C(=C\c2ccc(-c3ccc(Br)cc3)o2)SC1=S`, the IC50 was 3.49 µM.

For `Cc1c2c(=O)n(-c3nc4ccccc4s3)nc-2cc(O)n1Cc1ccncc1`, the IC50 was 2.96 µM.

For the compound `Cc1c2c(=O)n(-c3nc4ccccc4s3)nc-2cc(O)n1C1CC1`, the IC50 was 15.5 µM.

In the case of `CCOC(=O)C1=C(C)N=c2s/c(=C\c3ccc(OCC(=O)O)cc3)c(=O)n2C1c1ccc(Cl)cc1` (stereo not drawn), the IC50 is 34.9 µM.

`CCOc1ccc(-n2cccc2/C=C2/C(=N)N3C(=NC2=O)SN=C3S(C)(=O)=O)cc1`: the IC50 is 39.5 µM.

With `Cc1ccc(-c2ccc(/C=C3\SC(=S)N(CCCC(=O)O)C3=O)o2)cc1`, the IC50 is 29.1 µM.

As for `Cc1c2c(=O)n(-c3nc4ccccc4s3)nc-2cc(O)n1Cc1cccs1`, the IC50 is 34.5 µM.

For `Cc1ccc(-n2cccc2/C=C2/C(=N)N3C(=NC2=O)SN=C3S(C)(=O)=O)cc1`, the IC50 is 38 µM.

Regarding `CS(=O)(=O)C1=NSC2=NC(=O)/C(=C\c3cccn3-c3cccc(Cl)c3)C(=N)N21`, the IC50 was 36.4 µM.

As for `O=C(O)CCCN1C(=O)/C(=C\c2ccc(-c3cccc(Cl)c3)o2)SC1=S`, the IC50 is 28.5 µM.

For `O=C(O)CCC(C(=O)O)N1C(=O)/C(=C\c2ccco2)SC1=S` (stereo not drawn), the IC50 was > 100 µM (inactive).

For `CCOC(=O)C1=C(C)N=c2sc(=Cc3ccc(OCC(=O)O)cc3)c(=O)n2C1c1ccccc1OC` (stereo not drawn), the IC50 was 48.8 µM.

With `Cc1c2c(=O)n(-c3nc4ccccc4s3)nc-2cc(O)n1CCc1ccc(O)cc1`, the IC50 was 5.19 µM.

As for `Cc1c2c(=O)n(-c3nc4ccccc4s3)nc-2cc(O)n1Cc1cccnc1`, the IC50 is 3.54 µM.

Turning to `CCc1ccc(-n2cccc2/C=C2/C(=N)N3C(=NC2=O)SN=C3S(C)(=O)=O)cc1`, the IC50 is 33.3 µM.

Consider `CCOC(=O)C1=C(C)N=c2sc(=Cc3ccc(OCC(=O)O)cc3)c(=O)n2C1c1ccccc1` (stereo not drawn), for which the IC50 is 63.1 µM.

`O=C(O)c1ccc(C[n+]2c(-c3ccccc3)csc2Nc2ccccc2)cc1`: the IC50 is > 100 µM (inactive).

For the compound `CCOC(=O)C1=C(C)N=c2s/c(=C\c3ccc(OCC(=O)O)cc3)c(=O)n2C1c1ccc(OC)c(OCC)c1` (stereo not drawn), the IC50 is 31.3 µM.

Regarding `Cc1ccc(-n2cccc2/C=C2/C(=N)N3C(=NC2=O)SN=C3S(C)(=O)=O)cc1C`, the IC50 was 33.1 µM.

Turning to `CS(=O)(=O)C1=NSC2=NC(=O)/C(=C\c3cccn3-c3ccc(Br)cc3)C(=N)N21`, the IC50 is 28.5 µM.

`CCc1ccc(-c2ccc(/C=C3\SC(=S)N(CCCC(=O)O)C3=O)o2)cc1`: the IC50 was 62.4 µM.

For `Nc1sc2ccccc2[n+]1Cc1ccc(C(=O)O)cc1`, the IC50 is > 100 µM (inactive).

Consider `CS(=O)(=O)C1=NSC2=NC(=O)/C(=C\c3cccn3-c3cccc(C(F)(F)F)c3)C(=N)N21`, for which the IC50 is 46.6 µM.

Turning to `CCOC(=O)C1=C(C)N=c2sc(=Cc3ccc(OCC(=O)O)cc3)c(=O)n2C1c1cc(OC)c(OC)c(OC)c1` (stereo not drawn), the IC50 was 75.5 µM.

The values are drawn from PubChem BioAssay AID504341 (Southern Research Specialized Biocontainment Screening …, 2011).
